From patent US20160242416A1, “FUNGICIDAL ISOXAZOLINE CARBINOLS” (E I DU PONT DE NEMOURS AND COMPANY, priority 2015, published 2016)

How the values were obtained:
Stagonospora nodorum = assay: Test D: wheat glume blotch, preventive spray on wheat seedlings; conditions: 100 = 100% disease control; for Test D disease control rating: 10 ppm test solution, 0 = no control relative to controls; for Test D rating (% disease control): 10 ppm, wheat glume blotch, 0 = no control
[1] = test system: Puccinia recondita f sp. tritici; assay: Test F: wheat leaf rust, preventive spray on wheat seedlings; conditions: 100 = 100% disease control; for Test F disease control rating: 10 ppm test solution, 0 = no control relative to controls; for Test F rating (% disease control): 10 ppm, wheat leaf rust, 0 = no control
Zymoseptoria tritici = assay: Test E: wheat leaf blotch, preventive spray on wheat seedlings; conditions: 100 = 100% disease control; for Test E disease control rating: 10 ppm test solution, 0 = no control relative to controls; for Test E rating (% disease control): 10 ppm, wheat leaf blotch, 0 = no control
[2] = test system: Erysiphe graminis f sp. tritici; assay: Test G: wheat powdery mildew, preventive spray on wheat seedlings; conditions: 100 = 100% disease control; for Test G disease control rating: 10 ppm test solution, 0 = no control relative to controls; for Test G rating (% disease control): 10 ppm, wheat powdery mildew, 0 = no control

Compound	Test D disease control rating (Stagonospora nodorum) [%]	Test F disease control rating [1] [%]	Test E disease control rating (Zymoseptoria tritici) [%]	Test G disease control rating [2] [%]	Test D rating (% disease control) (Stagonospora nodorum) [%]	Test F rating (% disease control) [1] [%]	Test E rating (% disease control) (Zymoseptoria tritici) [%]	Test G rating (% disease control) [2] [%]
CC1(C(O)(Cn2cncn2)C2=NOC(COc3ccc(Br)cc3)C2)CC1 (single isomer, unassigned) [Compound 239]	98	100	0	99	–	–	–	–
CC(C)(C)C(O)(Cn1cncn1)C1=NOC(CCOc2ccc(F)cc2)C1 (single isomer, unassigned) [Compound 269]	99	100	73	100	–	–	–	–
CC(C)(C)C(O)(Cn1cncn1)C1=NOC(COc2ccc(-c3ccccc3)cc2)C1 (single isomer, unassigned) [Compound 228]	0	86	12	99	–	–	–	–
CC(C)(C)C(O)(Cn1cncn1)C1=NOC(COc2ccc(Cl)c(Cl)c2)C1 (single isomer, unassigned) [Compound 257]	100	100	29	100	–	–	–	–
CCC(C)(C)C(O)(Cn1cncn1)C1=NOC(COc2ccc(F)cc2)C1 (single isomer, unassigned) [Compound 250]	64	99	0	99	–	–	–	–
CC(C)(C)C(O)(Cn1cncn1)C1=NOC(COc2cccc(C(F)(F)F)c2)C1 (single isomer, unassigned) [Compound 254]	99	100	0	99	–	–	–	–
OC(Cn1cncn1)(C1=NOC(COc2ccc(Cl)cc2)C1)C1(Cl)CC1 (single isomer, unassigned) [Compound 251]	100	100	3	100	–	–	–	–
OC(COc1ccc(Cl)cc1)(Cn1cncn1)C1=NOC(c2ccc(Cl)cc2)C1 (centres unmarked) [Compound 272]	69	100	0	99	–	–	–	–
CC1(C(O)(Cn2cncn2)C2=NOC(COc3ccc(Cl)cc3)C2)CC1 (single isomer, unassigned) [Compound 225]	–	100	0	99	–	–	–	–
CC1(C(O)(Cn2cncn2)C2=NOC(COc3ccc(C(F)(F)F)cc3)C2)CC1 (single isomer, unassigned) [Compound 237]	89	100	0	98	–	–	–	–
CC(C)(C)CC(O)(Cn1cncn1)C1=NOC(COc2ccc(F)cc2)C1 (single isomer, unassigned) [Compound 245]	51	98	2	98	–	–	–	–
OC(Cn1cncn1)(C1=NOC(COc2ccc(Cl)cc2)C1)C1CCCCC1 (single isomer, unassigned) [Compound 265]	99	100	1	100	–	–	–	–
OC(Cn1cncn1)(C1=NOC(COc2ccc(Cl)cc2)C1)C1(Cl)CC1 (single isomer, unassigned) [Compound 252]	78	100	2	89	–	–	–	–
OC(Cn1cncn1)(C1=NOC(Cc2ccc(-c3ccccc3)cc2)C1)c1ccc(Cl)cc1 (single isomer, unassigned) [Compound 204]	–	–	–	–	77	100	0	99
Cc1ccc(OCC2CC(C(O)(Cn3cncn3)C(C)(C)C)=NO2)cc1 (single isomer, unassigned) [Compound 235]	–	87	8	99	–	–	–	–
CC(C)(C)CC(O)(Cn1cncn1)C1=NOC(COc2ccc(F)cc2)C1 (single isomer, unassigned) [Compound 244]	99	100	0	99	–	–	–	–
CC1(C(O)(Cn2cncn2)C2=NOC(COc3ccc(C(F)(F)F)cc3)C2)CC1 (single isomer, unassigned) [Compound 236]	99	100	16	100	–	–	–	–
CC(C)(C)C(O)(Cn1cncn1)C1=NOC(COc2ccc(Cl)cc2Cl)C1 (single isomer, unassigned) [Compound 255]	100	100	1	100	–	–	–	–

Compound	Test D disease control rating (Stagonospora nodorum) [%]	Test F disease control rating [1] [%]	Test E disease control rating (Zymoseptoria tritici) [%]	Test G disease control rating [2] [%]	Test D rating (% disease control) (Stagonospora nodorum) [%]	Test F rating (% disease control) [1] [%]	Test E rating (% disease control) (Zymoseptoria tritici) [%]	Test G rating (% disease control) [2] [%]
CCC(C)(C)C(O)(Cn1cncn1)C1=NOC(COc2ccc(C(F)(F)F)cc2)C1 (single isomer, unassigned) [Compound 262]	0	99	41	98	–	–	–	–
OC(COc1ccc(Cl)cc1)(Cn1cncn1)C1=NOC(COc2ccc(Cl)cc2)C1 (centres unmarked) [Compound 271]	42	100	2	92	–	–	–	–
CC(C)(C)C(O)(Cn1cnnn1)C1=NOC(COc2ccc(Cl)cc2)C1 (centres unmarked) [Compound 246]	98	100	0	95	–	–	–	–
COc1ccc(OCC2CC(C(O)(Cn3cncn3)C(C)(C)C)=NO2)cc1 (single isomer, unassigned) [Compound 259]	99	92	0	99	–	–	–	–
CC(C)(C)C(O)(Cn1cncn1)C1=NOC(CCOc2ccc(Cl)cc2)C1 (single isomer, unassigned) [Compound 208]	–	–	–	–	100	100	74	100
OC(Cn1cncn1)(Cn1cncn1)C1=NOC(COc2ccc(Cl)cc2)C1 (centres unmarked) [Compound 248]	0	100	0	98	–	–	–	–
CC1(C(O)(Cn2cncn2)C2=NOC(COc3ccc(Br)cc3)C2)CC1 (single isomer, unassigned) [Compound 238]	99	100	0	99	–	–	–	–
OC(Cn1cncn1)(C1=NOC(Cc2ccc(-c3ccccc3)cc2)C1)c1ccc(Cl)cc1 (single isomer, unassigned) [Compound 205]	–	–	–	–	10	68	6	98
CCC(C)(C)C(O)(Cn1cncn1)C1=NOC(COc2ccc(C(F)(F)F)cc2)C1 (single isomer, unassigned) [Compound 261]	100	100	92	100	–	–	–	–
CC(C)(C)CC(O)(Cn1cncn1)C1=NOC(COc2ccc(C(F)(F)F)cc2)C1 (single isomer, unassigned) [Compound 241]	–	99	0	90	–	–	–	–
CC(C)CC(O)(Cn1cncn1)C1=NOC(COc2ccc(Cl)cc2)C1 (single isomer, unassigned) [Compound 267]	100	100	3	100	–	–	–	–
CCC(C)(C)C(O)(Cn1cncn1)C1=NOC(COc2ccc(F)cc2)C1 (single isomer, unassigned) [Compound 249]	100	100	0	100	–	–	–	–
CC(C)(C)C(O)(Cn1cncn1)C1=NOC(COc2ccc(-c3ccccc3)cc2)C1 (single isomer, unassigned) [Compound 229]	0	0	6	98	–	–	–	–
CC(C)(C)C(O)(Cn1cncn1)C1=NOC(COc2ccc(Cl)cc2Cl)C1 (single isomer, unassigned) [Compound 256]	97	100	0	99	–	–	–	–
CC(C)(C)CC(O)(Cn1cncn1)C1=NOC(COc2ccc(C(F)(F)F)cc2)C1 (single isomer, unassigned) [Compound 240]	–	100	0	99	–	–	–	–
CC1(C(O)(Cn2cncn2)C2=NOC(COc3ccc(Cl)cc3)C2)CC1 (single isomer, unassigned) [Compound 224]	–	100	30	100	–	–	–	–
Cc1ccc(OCC2CC(C(O)(Cn3cncn3)C(C)(C)C)=NO2)cc1 (single isomer, unassigned) [Compound 234]	–	0	0	99	–	–	–	–
